# US11926614B2, “1,2,4-triazole derivatives as tankyrase inhibitors” (priority 2018, dated 2024)
# Several values for one entry are separate records, joined by “and”; a condition that tells them apart may be missing. Equal values may be shown once. Read-outs that look alike come from different tables or passages of the source.
# Legend:
# [1] = biological target: TNKS2 (Homo sapiens (Human), UniProt Q9H2K2); assay: Biochemical IC50 TNKS2; conditions: read-out: Biochemical IC50 TNKS2
# Source text: (§1) XLfit (idbs) was used to determine the IC50-values in inhibition experiments. The following formula was chosen to fit the data points (Langmuir Binding Isotherm): fit=((A+(B*x))+4(C−B)*(1−exp((−1*D)*x)))/D)), res=(y−fit)
# [2] = system: HEK293; assay: Cellular IC50 HEK293; format: cell-based
# Source text: as §1
# [3] = Homo sapiens, HEK293, HEK293; read-out: Cellular IC50 HEK293
# [4] = Homo sapiens, HEK293, read-out: Cellular IC50 HEK293
# [5] = Homo sapiens, HEK293; read-out: Cellular IC50 HEK293
# Chain of TNKS2 (Q9H2K2 whole entry): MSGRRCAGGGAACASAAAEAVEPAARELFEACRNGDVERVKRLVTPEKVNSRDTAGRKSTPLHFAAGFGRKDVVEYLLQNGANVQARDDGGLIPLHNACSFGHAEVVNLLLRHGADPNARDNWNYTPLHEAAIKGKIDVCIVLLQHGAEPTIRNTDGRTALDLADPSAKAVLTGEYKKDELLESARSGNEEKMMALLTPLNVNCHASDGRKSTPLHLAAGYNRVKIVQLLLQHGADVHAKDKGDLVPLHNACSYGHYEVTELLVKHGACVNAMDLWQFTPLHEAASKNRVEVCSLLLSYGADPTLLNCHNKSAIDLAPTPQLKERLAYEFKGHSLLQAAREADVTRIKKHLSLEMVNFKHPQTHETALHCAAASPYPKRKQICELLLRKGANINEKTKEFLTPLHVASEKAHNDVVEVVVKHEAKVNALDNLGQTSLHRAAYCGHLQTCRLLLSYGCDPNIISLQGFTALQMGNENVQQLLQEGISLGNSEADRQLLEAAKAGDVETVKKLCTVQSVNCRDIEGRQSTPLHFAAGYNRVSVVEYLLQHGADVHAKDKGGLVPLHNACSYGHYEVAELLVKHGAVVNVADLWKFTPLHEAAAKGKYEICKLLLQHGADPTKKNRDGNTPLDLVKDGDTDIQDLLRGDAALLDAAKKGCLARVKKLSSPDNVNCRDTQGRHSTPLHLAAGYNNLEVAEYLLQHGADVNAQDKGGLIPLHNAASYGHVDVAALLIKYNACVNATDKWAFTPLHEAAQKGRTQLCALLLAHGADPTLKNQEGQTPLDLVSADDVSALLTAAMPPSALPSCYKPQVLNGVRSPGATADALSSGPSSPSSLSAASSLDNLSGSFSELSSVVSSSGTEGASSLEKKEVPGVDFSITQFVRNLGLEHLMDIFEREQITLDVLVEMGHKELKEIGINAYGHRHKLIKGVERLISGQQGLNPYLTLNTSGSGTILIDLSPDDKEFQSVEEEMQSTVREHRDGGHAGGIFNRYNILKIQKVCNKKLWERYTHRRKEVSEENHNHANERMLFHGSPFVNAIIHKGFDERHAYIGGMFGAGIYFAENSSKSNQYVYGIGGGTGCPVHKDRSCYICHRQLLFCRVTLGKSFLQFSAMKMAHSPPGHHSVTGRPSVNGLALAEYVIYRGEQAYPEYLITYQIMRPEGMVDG
SMILES,IC50 [1],"IC50 [2, 3] [nM]","IC50 [2, 4] [nM]","IC50 [2, 5] [nM]"
"CCOc1ccc(-c2nnc([C@H]3C[C@H](NC(=O)c4cn(C)cn4)C3)n2-c2ccccc2F)nc1 [Example 117, N-((1S,3r)-3-(5-(5-ethoxypyridin-2-yl)-4-(2-fluorophenyl)-4H-1,2,4-triazol-3-yl)cyclobutyl)-1-methyl-1H-imidazole-4-carboxamide]",87 nM,550,,
"CS(=O)(=O)c1ccc(-c2nnc([C@H]3C[C@H](NC(=O)c4ccnc5cc(F)cnc45)C3)n2-c2ccccc2F)nc1 [Example 50, 7-fluoro-N-((1S,3r)-3-(4-(2-fluorophenyl)-5-(5-(methylsulfonyl)pyridin-2-yl)-4H-1,2,4-triazol-3-yl)cyclobutyl)-1,5-naphthyridine-4-carboxamide]",1.6 nM,0.23,,
"CCOc1ccc(-c2nnc([C@H]3C[C@H](NC(=O)c4ccccn4)C3)n2-c2ccc(Cl)s2)nc1 [Example 75, N-((1r,3r)-3-(4-(5-chlorothiophen-2-yl)-5-(5-ethoxypyridin-2-yl)-4H-1,2,4-triazol-3-yl)cyclobutyl)picolinamide]",12 nM,,27,
"O=C(N[C@H]1C[C@H](c2nnc(-c3ccccn3)n2-c2ccccc2F)C1)c1ccnc2cc(F)cnc12 [Example 191, 7-fluoro-N-((1S,3r)-3-(4-(2-fluorophenyl)-5-(pyridin-2-yl)-4H-1,2,4-triazol-3-yl)cyclobutyl)-1,5-naphthyridine-4-carboxamide]",1.8 nM,,,3.4
"CCOc1ccc(-c2nnc([C@H]3C[C@H](NC(=O)c4cc(C)ccn4)C3)n2-c2ccccc2F)nc1 [Example 103, N-((1S,3r)-3-(5-(5-ethoxypyridin-2-yl)-4-(2-fluorophenyl)-4H-1,2,4-triazol-3-yl)cyclobutyl)-4-methylpicolinamide]",4.5 nM,25,,
"CCOc1ccc(-c2nnc([C@H]3C[C@H](NC(=O)c4nc5ccccc5[nH]4)C3)n2-c2ccccc2)nc1 [Example 73, N-((1r,3r)-3-(5-(5-ethoxypyridin-2-yl)-4-phenyl-4H-1,2,4-triazol-3-yl)cyclobutyl)-1H-benzo[d]imidazole-2-carboxamide]",7 nM,102,,
"CCOc1ccc(-c2nnc([C@H]3C[C@H](NC(=O)c4ccnc5cc(F)cnc45)C3)n2-c2ccncc2)nc1 [Example 170, N-((1r,3r)-3-(5-(5-ethoxypyridin-2-yl)-4-(pyridin-4-yl)-4H-1,2,4-triazol-3-yl)cyclobutyl)-7-fluoro-1,5-naphthyridine-4-carboxamide]",2.9 nM,,6,
"CCOc1ccc(-c2nnc([C@H]3C[C@H](NC(=O)c4cc5ncccc5[nH]4)C3)n2-c2ccccc2F)nc1 [Example 148, N-((1S,3r)-3-(5-(5-ethoxypyridin-2-yl)-4-(2-fluorophenyl)-4H-1,2,4-triazol-3-yl)cyclobutyl)-1H-pyrrolo[3,2-b]pyridine-2-carboxamide]",5 nM,8,,
"CC(C)Oc1ccc(-c2nnc([C@H]3C[C@H](NC(=O)c4ccccn4)C3)n2-c2ccccc2F)nc1 [Example 111, N-((1S,3r)-3-(4-(2-fluorophenyl)-5-(5-isopropoxypyridin-2-yl)-4H-1,2,4-triazol-3-yl)cyclobutyl)picolinamide]",12 nM,,110,
"CCOc1ccc(C(=O)N[C@H]2C[C@H](c3nnc(-c4nccs4)n3-c3ccccc3F)C2)nc1 [Example 30, 5-ethoxy-N-((1S,3r)-3-(4-(2-fluorophenyl)-5-(thiazol-2-yl)-4H-1,2,4-triazol-3-yl)cyclobutyl)picolinamide]",2 nM,16,,
"CCOc1ccc(-c2nnc([C@H]3C[C@H](NC(=O)c4cccc(C)n4)C3)n2-c2ccccc2F)nc1 [Example 119, N-((1S,3r)-3-(5-(5-ethoxypyridin-2-yl)-4-(2-fluorophenyl)-4H-1,2,4-triazol-3-yl)cyclobutyl)-6-methylpicolinamide]",5 nM,39,,
"CCOc1ccc(-c2nnc([C@H]3C[C@H](NC(=O)c4ccccc4)C3)n2-c2ccccc2F)nc1 [Example 52, N-((1S,3r)-3-(5-(5-ethoxypyridin-2-yl)-4-(2-fluorophenyl)-4H-1,2,4-triazol-3-yl)cyclobutyl)benzamide]",9.5 nM,73,,
"CCOc1ccc(-c2nnc([C@H]3C[C@H](NC(=O)c4cc5ccccc5cn4)C3)n2-c2ccccc2F)nc1 [Example 99, N-((1S,3r)-3-(5-(5-ethoxypyridin-2-yl)-4-(2-fluorophenyl)-4H-1,2,4-triazol-3-yl)cyclobutyl)isoquinoline-3-carboxamide]",5.4 nM,18,,
"CCOc1ccc(-c2nnc([C@H]3C[C@H](NC(=O)c4ccccc4)C3)n2-c2ccccc2Cl)nc1 [Example 136, N-((1S,3r)-3-(4-(2-chlorophenyl)-5-(5-ethoxypyridin-2-yl)-4H-1,2,4-triazol-3-yl)cyclobutyl)benzamide]",6.6 nM,16,,
"CCOc1ccc(-c2nnc([C@H]3C[C@H](NC(=O)c4ccc(C(C)(C)O)cn4)C3)n2-c2ccccc2F)nc1 [Example 101, N-((1S,3r)-3-(5-(5-ethoxypyridin-2-yl)-4-(2-fluorophenyl)-4H-1,2,4-triazol-3-yl)cyclobutyl)-5-(2-hydroxypropan-2-yl)picolinamide]",22 nM,96,,
"CCOc1ccc(-c2nnc([C@H]3C[C@H](NC(=O)c4cccc(C(C)O)n4)C3)n2-c2ccccc2F)nc1 (stereo partly drawn) [Example 128, N-((1R,3r)-3-(5-(5-ethoxypyridin-2-yl)-4-(2-fluorophenyl)-4H-1,2,4-triazol-3-yl)cyclobutyl)-6-(1-hydroxyethyl)picolinamide]",37 nM,230,,
"O=C(N[C@H]1C[C@H](c2nnc(-c3nccs3)n2-c2ccccc2F)C1)c1ccccc1 [Example 27, N-((1S,3r)-3-(4-(2-fluorophenyl)-5-(thiazol-2-yl)-4H-1,2,4-triazol-3-yl)cyclobutyl)benzamide]",250 nM,470,,
"CCOc1ccc(-c2nnc([C@H]3C[C@H](NC(=O)c4ccnc5cccnc45)C3)n2-c2ccccc2)nc1 [Example 69, N-((1r,3r)-3-(5-(5-ethoxypyridin-2-yl)-4-phenyl-4H-1,2,4-triazol-3-yl)cyclobutyl)-1,5-naphthyridine-4-carboxamide]",2 nM,0.712,,
"CCOc1ccc(-c2nnc(C34CC(NC(=O)c5ccnc6cccnc56)(C3)C4)n2-c2ccncc2)nc1 [Example 172, N-(3-(5-(5-ethoxypyridin-2-yl)-4-(pyridin-4-yl)-4H-1,2,4-triazol-3-yl)bicyclo[1.1.1]pentan-1-yl)-1,5-naphthyridine-4-carboxamide]",9.4 nM,,,43
"CCOc1ccc(-c2nnc([C@H]3C[C@H](NC(=O)c4cc5ccncc5[nH]4)C3)n2-c2ccccc2F)nc1 [Example 126, N-((1S,3r)-3-(5-(5-ethoxypyridin-2-yl)-4-(2-fluorophenyl)-4H-1,2,4-triazol-3-yl)cyclobutyl)-1H-pyrrolo[2,3-c]pyridine-2-carboxamide]",4.1 nM,27,,
"CCOc1ccc(-c2nnc([C@H]3C[C@H](NC(=O)c4ccc(F)cc4)C3)n2-c2ccccc2Cl)nc1 [Example 137, N-((1S,3r)-3-(4-(2-chlorophenyl)-5-(5-ethoxypyridin-2-yl)-4H-1,2,4-triazol-3-yl)cyclobutyl)-4-fluorobenzamide]",4.9 nM,10,,
"CCOc1ccc(-c2nnc([C@H]3C[C@H](NC(=O)c4ccccn4)C3)n2-c2ccccc2F)nc1 [Example 54, N-((1S,3r)-3-(5-(5-ethoxypyridin-2-yl)-4-(2-fluorophenyl)-4H-1,2,4-triazol-3-yl)cyclobutyl)picolinamide]",,,,17
"CCOc1ccc(-c2nnc([C@H]3C[C@H](NC(=O)c4ccc(F)cc4)C3)n2-c2ccccc2F)nc1 [Example 56, N-((1S,3r)-3-(5-(5-ethoxypyridin-2-yl)-4-(2-fluorophenyl)-4H-1,2,4-triazol-3-yl)cyclobutyl)-4-fluorobenzamide]",10 nM and 2 nM,,,
"[2H]C([2H])([2H])C([2H])([2H])Oc1ccc(-c2nnc([C@H]3C[C@H](NC(=O)c4ccccn4)C3)n2-c2ccccc2F)nc1 [Example 93, N-((1S,3r)-3-(5-(5-(ethoxy-d5)pyridin-2-yl)-4-(2-fluorophenyl)-4H-1,2,4-triazol-3-yl)cyclobutyl)picolinamide]",,,,9.5
"O=C(N[C@H]1C[C@H](c2nnc(-c3ccncn3)n2-c2ccccc2Cl)C1)c1c(F)cccc1F [Example 16, N-((1S,3r)-3-(4-(2-chlorophenyl)-5-(pyrimidin-4-yl)-4H-1,2,4-triazol-3-yl)cyclobutyl)-2,6-difluorobenzamide]",,7680,,
"CCOc1ccc(-c2nnc([C@H]3C[C@H](NC(=O)c4cccc5cccnc45)C3)n2-c2ccccc2)nc1 [Example 71, N-((1r,3r)-3-(5-(5-ethoxypyridin-2-yl)-4-phenyl-4H-1,2,4-triazol-3-yl)cyclobutyl)quinoline-8-carboxamide]",,1.8,,
"O=C(N[C@H]1C[C@H](c2nnc(-c3nccs3)n2-c2ccccc2F)C1)c1ccnc2cc(F)cnc12 [Example 29, 7-fluoro-N-((1S,3r)-3-(4-(2-fluorophenyl)-5-(thiazol-2-yl)-4H-1,2,4-triazol-3-yl)cyclobutyl)-1,5-naphthyridine-4-carboxamide]",,1.3,,
"CCOc1ccc(-c2nnc([C@H]3C[C@H](NC(=O)c4cccc5nccnc45)C3)n2-c2ccccc2F)nc1 [Example 154, N-((1S,3r)-3-(5-(5-ethoxypyridin-2-yl)-4-(2-fluorophenyl)-4H-1,2,4-triazol-3-yl)cyclobutyl)quinoxaline-5-carboxamide]",,,0.53,
